Assay results: paper PMC6214715 (Journal of veterinary pharmacology and therapeutics, 2018)

Tests used:
[1] = target: T1, CYP2C21 (Canis lupus familiaris, UniProt P56594); type: in vitro ADME, canine; settings: recombinant CYP2C21; (+)-M1 10 μM, (+)-M2 0.5 μM
T1 sequence (P56594 1-487): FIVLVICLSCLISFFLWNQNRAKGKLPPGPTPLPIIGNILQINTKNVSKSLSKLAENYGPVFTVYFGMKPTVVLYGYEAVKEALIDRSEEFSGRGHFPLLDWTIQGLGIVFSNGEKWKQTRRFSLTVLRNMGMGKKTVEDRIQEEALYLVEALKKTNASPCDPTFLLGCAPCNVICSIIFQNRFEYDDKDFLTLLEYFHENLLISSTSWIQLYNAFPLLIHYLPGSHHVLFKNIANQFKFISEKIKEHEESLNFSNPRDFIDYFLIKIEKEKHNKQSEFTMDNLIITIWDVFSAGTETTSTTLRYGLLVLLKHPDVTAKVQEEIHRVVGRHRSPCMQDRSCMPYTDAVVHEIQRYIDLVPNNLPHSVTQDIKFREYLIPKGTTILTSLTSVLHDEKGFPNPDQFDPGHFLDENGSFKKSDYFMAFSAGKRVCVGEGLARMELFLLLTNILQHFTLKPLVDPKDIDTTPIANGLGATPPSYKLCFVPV

[2] = target: T2, CYP2C41 (Canis lupus familiaris, UniProt O62671); type: in vitro ADME, canine; settings: recombinant CYP2C41; (+)-M1 10 μM, (+)-M2 0.5 μM
T2 sequence (O62671 1-489): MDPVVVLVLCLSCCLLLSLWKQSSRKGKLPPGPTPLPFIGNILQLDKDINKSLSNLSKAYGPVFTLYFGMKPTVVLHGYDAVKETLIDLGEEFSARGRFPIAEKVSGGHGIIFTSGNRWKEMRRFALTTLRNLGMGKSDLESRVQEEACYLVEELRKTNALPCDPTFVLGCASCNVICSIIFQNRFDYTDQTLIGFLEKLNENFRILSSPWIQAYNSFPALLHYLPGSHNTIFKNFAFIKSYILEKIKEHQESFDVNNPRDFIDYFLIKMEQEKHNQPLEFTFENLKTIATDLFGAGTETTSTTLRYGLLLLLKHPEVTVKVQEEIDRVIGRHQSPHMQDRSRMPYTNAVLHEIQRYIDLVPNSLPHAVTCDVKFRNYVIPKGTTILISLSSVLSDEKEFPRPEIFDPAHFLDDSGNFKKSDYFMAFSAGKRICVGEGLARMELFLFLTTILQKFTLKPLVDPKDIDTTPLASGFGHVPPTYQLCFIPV

Structure (SMILES): CN(C)CC1CCCCC1(O)c1cccc(O)c1.Cl (single isomer, unassigned; (+)) [(+)-M1, (+)-O-desmethyltramadol hydrochloride]
- formation rate of (+)-M5 (in words) [1]: highest
- formation rate of (+)-M5 (in words) [2]: somewhat lower activities
